According to ChEMBL document CHEMBL4699602, “Stapled and Xenopus Glucagon-Like Peptide 1 (GLP-1)-Based Dual GLP-1/Gastrin Receptor Agonists with Improved Metabolic Benefits in Rodent Models of Obesity and Diabetes” (J Med Chem, 2020):
Activity calls are given as the source filed them. No cut-off for these calls is given here. *1 amine or outer side, *2 acyl side, *3 side chain or, on linkers, in order; H or OH if unused. Bridges are numbered along the chain shown (N, C = ends). [ ]: non-standard residue; d: D form. X1 = CCCCCCCCCCCCCCCC(=O)NCCCCCCNC(=O)C(CCCCNC(=O)CCN1C(=O)CC([*:1])C1=O)NC(=O)CCN1C(=O)CC([*:2])C1=O; AEEA = NCCOCCOCC(=O)O; Aib = CC(C)(N)C(=O)O

What was measured:
Mus musculus [1] = experiment: Hypoglycemic activity in db/db mouse assessed as decrease in glucose excursion at 25 nmol/kg, ip dosed 30 mins before test and measured up to 120 mins by OGTT method; format: functional, organism-based; conditions: time 150.0 min
[2] = target: Glucagon-like peptide 1 receptor (Homo sapiens, UniProt P43220); experiment: Agonist activity at human GLP-1R expressed in HEK293 cells assessed as stimulation of cAMP accumulation incubated for 20 mins; format: functional, cell-based
[3] = target: T1, Cholecystokinin receptor type A (Homo sapiens, UniProt P32238); experiment: Agonist activity at human CCK-1R expressed in HEK293 cells assessed as stimulation of ERK phosphorylation incubated for 5 mins; format: cell-based
T1 sequence (P32238 whole entry): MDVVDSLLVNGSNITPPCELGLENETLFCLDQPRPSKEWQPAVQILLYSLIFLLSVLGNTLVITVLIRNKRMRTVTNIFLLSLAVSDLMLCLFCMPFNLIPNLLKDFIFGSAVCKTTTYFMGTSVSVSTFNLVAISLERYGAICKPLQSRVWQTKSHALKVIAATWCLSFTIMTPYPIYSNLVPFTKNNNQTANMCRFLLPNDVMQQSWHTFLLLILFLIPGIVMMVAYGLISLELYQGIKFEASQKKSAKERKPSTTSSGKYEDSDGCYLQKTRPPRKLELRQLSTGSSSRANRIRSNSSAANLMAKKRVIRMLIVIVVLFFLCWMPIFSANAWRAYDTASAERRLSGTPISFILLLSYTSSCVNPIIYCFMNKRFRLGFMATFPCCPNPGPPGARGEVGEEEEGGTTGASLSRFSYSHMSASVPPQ

[4] = target: T2, Gastrin/cholecystokinin type B receptor (Homo sapiens, UniProt P32239); experiment: Agonist activity at human CCK-2R expressed in HEK293 cells assessed as stimulation of ERK phosphorylation incubated for 5 mins; format: cell-based
T2 sequence (P32239 whole entry): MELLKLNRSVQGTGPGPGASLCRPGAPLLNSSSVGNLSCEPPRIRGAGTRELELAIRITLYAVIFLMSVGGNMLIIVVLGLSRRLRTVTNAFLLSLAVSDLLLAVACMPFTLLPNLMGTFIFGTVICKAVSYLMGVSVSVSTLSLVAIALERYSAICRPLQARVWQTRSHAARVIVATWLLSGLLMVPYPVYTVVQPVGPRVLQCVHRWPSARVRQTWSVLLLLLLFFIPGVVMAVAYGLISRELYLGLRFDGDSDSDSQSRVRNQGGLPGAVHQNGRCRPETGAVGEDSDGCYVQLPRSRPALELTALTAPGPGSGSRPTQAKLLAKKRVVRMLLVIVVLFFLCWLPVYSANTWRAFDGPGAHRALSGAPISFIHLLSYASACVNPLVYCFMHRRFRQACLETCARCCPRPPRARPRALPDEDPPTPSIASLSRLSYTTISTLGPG

Mus musculus [5] = experiment: Hypoglycemic activity in db/db mouse assessed as improvement in glucose tolerance at 25 nmol/kg, ip dosed 30 mins before test and measured up to 120 mins by OGTT method; format: functional, organism-based; conditions: time 150.0 min
Mus musculus [6] = experiment: Insulinotropic activity in db/db mouse assessed as improvement in plasma insulin level at 25 nmol/kg, ip dosed 30 mins before test and measured up to 60 mins by OGTT method; format: functional, organism-based; conditions: time 90.0 min
[7] = Half life in ICR mouse at 50 nmol/kg, sc up to 24 hrs by LC-MS/MS analysis; format: ADME, organism-based; conditions: in vivo
[8] = Tmax in ICR mouse at 50 nmol/kg, sc up to 24 hrs by LC-MS/MS analysis; format: ADME, organism-based; conditions: in vivo
[9] = AUC (0 to infinity) in ICR mouse at 50 nmol/kg, sc up to 24 hrs by LC-MS/MS analysis; format: ADME, organism-based; set-up: route subcutaneous, dose 50 nmol/kg, time <=24; conditions: in vivo
Mus musculus [10] = experiment: Hypoglycemic activity in non-fasted db/db mouse assessed as improvement in glucose tolerance at dosed intraperitoneally 30 mins before test and measured up to 120 mins by OGTT method; format: functional, organism-based; conditions: time 150.0 min
Mus musculus [11] = experiment: […] activity in non-fasted db/db mouse assessed as improvement in glucose tolerance at dosed intraperitoneally 30 mins before test and measured up to 120 mins by OGTT method; format: functional, organism-based; conditions: time 150.0 min
Mus musculus [12] = experiment: Inhibition of liquid-phase gastric emptying in 6 hrs fasted ICR mouse assessed as reduction in blood acetaminophen concentration at 25 nmol/kg, ip dosed 30 mins before acetaminophen dosing by LC-MS/MS analysis; format: functional, organism-based
Mus musculus [13] = experiment: Inhibition of solid-phase gastric emptying in fasted ICR mouse at 25 nmol/kg, ip measured after 4 hrs by LC-MS/MS analysis; format: functional, organism-based
[14] = Toxicity in Sprague-Dawley rat assessed as induction of kaolin intake at 25 nmol/kg, ip after 24 hrs by Kaolin consumption test; format: organism-based; conditions: in vivo
Rattus norvegicus [15] = experiment: Reduction of food intake in Sprague-Dawley rat at 25 nmol/kg, ip after 24 hrs; format: functional, organism-based
[16] = Toxicity in Sprague-Dawley rat assessed as induction of kaolin intake at 25 nmol/kg, sc BID for 10 days by Kaolin consumption test; format: organism-based; conditions: in vivo, 240 h, time 10 day
Rattus norvegicus [17] = experiment: Reduction of food intake in Sprague-Dawley rat at 25 nmol/kg, sc BID for 12 days; format: functional, organism-based; conditions: time 12.0 day
INS1 [18] = experiment: Toxicity in rat INS1 cells assessed as reduction cell viability up to 1000 nM after 24 hrs by MTT assay; format: cell-based; conditions: ins1, 24 h
INS1 [19] = experiment: Protection against glucotoxicity in rat INS1 cells assessed as recovery of cell viability after 24 hrs in presence of glucotoxicity media by MTT assay; format: functional, cell-based
[20] = Hepatotoxicity in ICR mouse assessed as effect on aspartate aminotransferase level at 1000 nmol/kg, sc BID for 14 days; format: toxicity, organism-based; conditions: in vivo, 336 h, time 14 day
[21] = Hepatotoxicity in ICR mouse assessed as effect on alanine aminotransferase level at 1000 nmol/kg, sc BID for 14 days; format: toxicity, organism-based; conditions: in vivo, 336 h, time 14 day
[22] = Renal toxicity in ICR mouse assessed as effect on serum creatinine level at 1000 nmol/kg, sc BID for 14 days; format: organism-based; conditions: in vivo, 336 h, time 14 day
[23] = Renal toxicity in ICR mouse assessed as effect on blood urea nitrogen level at 1000 nmol/kg, sc BID for 14 days; format: organism-based; conditions: in vivo, 336 h, time 14 day
Mus musculus [24] = experiment: Reduction in body weight in C57BL/6 mouse model of high-fat diet induced obesity at 25 nmol/kg, sc BID for 21 days relative to control; format: functional; set-up: scale not given: the % may be the effect or the level left; conditions: time 21 day
Mus musculus [25] = experiment: Reduction in body fat content in C57BL/6 mouse model of high-fat diet induced obesity at 25 nmol/kg, sc BID for 21 days relative to control; format: functional; set-up: scale not given: the % may be the effect or the level left; conditions: time 21 day
Mus musculus [26] = experiment: Reduction in fasting blood glucose in C57BL/6 mouse model of high-fat diet induced obesity at 25 nmol/kg, sc BID for 21 days relative to control; format: functional, organism-based; conditions: time 21.0 day
Mus musculus [27] = experiment: Improvement in glucose tolerance in C57BL/6 mouse model of high-fat diet induced obesity at 25 nmol/kg, sc BID for 21 days relative to control; format: functional, organism-based; conditions: time 21.0 day
Mus musculus [28] = experiment: Reduction in serum cholesterol in C57BL/6 mouse model of high-fat diet induced obesity at 25 nmol/kg, sc BID for 21 days relative to control; format: functional, organism-based; conditions: time 21.0 day
Mus musculus [29] = experiment: Reduction in serum triglyceride in C57BL/6 mouse model of high-fat diet induced obesity at 25 nmol/kg, sc BID for 21 days relative to control; format: functional, organism-based; conditions: time 21.0 day
Mus musculus [30] = experiment: Reduction in cumulated food intake in db/db mouse at 25 nmol/kg, sc BID for 21 days relative to control; format: functional, organism-based; conditions: time 21.0 day
Mus musculus [31] = experiment: Reduction in body weight gain in db/db mouse at 25 nmol/kg, sc BID for 21 days relative to control; format: functional, organism-based; conditions: time 21.0 day
Mus musculus [32] = experiment: Improvement in fasted blood glucose level in db/db mouse at 25 nmol/kg, sc BID for 21 days relative to control; format: functional, organism-based; conditions: time 21.0 day
Mus musculus [33] = experiment: Improvement in HbA1c level in db/db mouse at 25 nmol/kg, sc BID for 21 days relative to control; format: functional, organism-based; conditions: time 21.0 day
Mus musculus [34] = experiment: Improvement in pancreatic beta cell area level in db/db mouse at 25 nmol/kg, sc BID for 21 days relative to control; format: functional, organism-based; conditions: time 21.0 day
Mus musculus [35] = experiment: Inhibition of pancreatic non-beta cell area (alpha-cell) level in db/db mouse at 25 nmol/kg, sc BID for 21 days relative to control; format: functional, organism-based; conditions: time 21.0 day
Mus musculus [36] = experiment: Improvement in pancreatic islet area and number level in db/db mouse at 25 nmol/kg, sc BID for 21 days relative to control; format: functional, organism-based; conditions: time 21.0 day
Mus musculus [37] = experiment: Improvement in insulin content in db/db mouse at 25 nmol/kg, sc BID for 21 days relative to control; format: functional, organism-based; conditions: time 21.0 day
Mus musculus [38] = experiment: Improvement in glucose tolerance in db/db mouse at 25 nmol/kg, sc BID for 6 weeks followed by another 6 week saline treatment relative to control; format: functional, organism-based
Mus musculus [39] = experiment: Improvement in fasted blood glucose level in db/db mouse at 25 nmol/kg, sc BID for 6 weeks followed by another 6 week saline treatment relative to control; format: functional, organism-based
Mus musculus [40] = experiment: Reduction in Hb1Ac level in db/db mouse at 25 nmol/kg, sc BID for 6 weeks followed by another 6 week saline treatment relative to control; format: functional, organism-based

Glucagon-like peptide 1 receptor, sequence (P43220 whole entry): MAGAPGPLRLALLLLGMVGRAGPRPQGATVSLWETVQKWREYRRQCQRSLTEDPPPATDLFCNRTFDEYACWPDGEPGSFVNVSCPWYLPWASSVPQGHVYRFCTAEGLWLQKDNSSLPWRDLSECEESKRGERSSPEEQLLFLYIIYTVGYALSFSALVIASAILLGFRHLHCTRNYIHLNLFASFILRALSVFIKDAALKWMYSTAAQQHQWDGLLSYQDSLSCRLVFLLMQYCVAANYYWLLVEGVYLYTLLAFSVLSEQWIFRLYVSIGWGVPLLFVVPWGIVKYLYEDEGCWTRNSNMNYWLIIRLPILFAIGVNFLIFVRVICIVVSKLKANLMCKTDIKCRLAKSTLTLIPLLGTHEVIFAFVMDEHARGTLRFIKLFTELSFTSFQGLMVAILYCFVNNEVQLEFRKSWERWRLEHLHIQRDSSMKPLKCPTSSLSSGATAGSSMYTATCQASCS

For “H-H[Aib]EGTYTNDVTEYLEEEAAKCFIEWLICGKPSSGAPPPS[AEEA][AEEA]YGWLDF-NH2 (linker 21-28 via X1)”, the Activity (Mus musculus [1]) was “Active”, the EC50 [2] was 0.041 nM and the EC50 [3] was greater than 1000 nM. For the same substance, the EC50 [4] was 8.8 nM, the Activity (Mus musculus [5]) was “Active” and the Activity (Mus musculus [6]) was “Active”. The half-life [7] was 4.7 h, the Tmax [8] was 4 h and the AUC(0-inf) [9] was 19600 ng·h/mL. For the same substance, the Activity (Mus musculus [10]) was “Dose-dependent effect”, the Activity (Mus musculus [11]) was “Dose-dependent effect” and the inhibition (Mus musculus [12]) was “Active”. The inhibition (Mus musculus [13]) was “Active”, the Activity [14] was “Non-Toxic” and the Activity (Rattus norvegicus [15]) was “Active”. The Activity [16] was “Non-Toxic”, the Activity (Rattus norvegicus [17]) was “Active” and the Activity (INS1 [18]) was “Non-Toxic”. The Activity (INS1 [19]) was “Dose-dependent effect”, the Activity [20] was “Non-Toxic” and the Activity [21] was “Non-Toxic”. The Activity [22] was “Non-Toxic”, the Activity [23] was “Non-Toxic” and the Activity (Mus musculus [24]) was 24%. For the same substance, the Activity (Mus musculus [25]) was 30.4%, the Activity (Mus musculus [26]) was “Active” and the Activity (Mus musculus [27]) was “Active”. For the same substance, the Activity (Mus musculus [28]) was “Active”, the Activity (Mus musculus [29]) was “Active” and the Activity (Mus musculus [30]) was “Active”. For the same substance, the Activity (Mus musculus [31]) was “Active”, the Activity (Mus musculus [32]) was “Active” and the Activity (Mus musculus [33]) was “Active”. For the same substance, the Activity (Mus musculus [34]) was “Active”, the inhibition (Mus musculus [35]) was “Active” and the Activity (Mus musculus [36]) was “Active”. The Activity (Mus musculus [37]) was “Active”, the Activity (Mus musculus [38]) was “Active” and the Activity (Mus musculus [39]) was “Active”. For the same substance, the Activity (Mus musculus [40]) was “Active”.
